Read-outs that look alike come from different tables or passages of the source.
Experiments:
Rhizoctonia solani = assay: Mycelial growth test; type: cell-based; settings: Rhizoctonia solani, 72 h, RS, read-out: Percent Fungus Growth Inhibition
Text: | RS = Rhizoctonia solani

Sclerotinia fructicola = assay: Mycelial growth test; type: cell-based; settings: Sclerotinia, 72 h, SF, read-out: Percent Fungus Growth Inhibition
Text: | SF = Sclerotinia fructicola

Helminthosporium oryzae = assay: Mycelial growth test; settings: Bipolaris oryzae, 72 h, read-out: Percent Fungus Growth Inhibition
Fusarium solani = assay: Mycelial growth test; type: cell-based; settings: Fusarium solani, 72 h
Pythium ultimum = assay: Mycelial growth test; type: cell-based; settings: Globisporangium ultimum, 72 h, PU, read-out: Percent Fungus Growth Inhibition
Cladosporium cucumerinum [1] = assay: Mycelial growth test; type: cell-based; settings: Cladosporium cucumerinum, CC, read-out: Percent Fungus Growth Inhibition
Text: |CC = Cladosporium cucumerinum

Pyricularia oryzae [2] = assay: microbe, parasite or virus in culture; type: cell-based; settings: Pyricularia oryzae, 72 h
Alternaria solani [3] = assay: Mycelial growth test; type: cell-based; settings: Alternaria solani, 72 h, AS, read-out: Percent Fungus Growth Inhibition
Pyricularia oryzae [4] = type: cell-based; settings: PO, 48 hours
Cladosporium cucumerinum [5] = assay: Spore germination test; type: cell-based; settings: CC, 48 hours
Method: CC = Cladosporium cucumerinum
(§1) The test chemical was dissolved or suspended in acetone in an amount such that 0.8 ml of the resulting suspension or solution, mixed with 40 ml water agar produced a water agar solution containing 40, 10, 2.5 and 1 ppm of test chemical. The resulting agar solution, at 50° C., was then divided equally between two sterile petri dishes, each having four separated quadrants, and allowed to solidify. […] quadrants of each dish were flooded with 0.1 ml of a spore suspension in sterile water. Spores of two pathogens, Erysiphe polygoni and Uromyes phaseoli, from infected plant leaves, were brushed on the remaining two quadrants. The tests were then incubated 48 hours, at 24° C.
(§2) Readings were then taken and the percentage of germinated spores calculated. From this percentage, a spore germination rating was assigned as follows: […]

Alternaria solani [6] = assay: Spore germination test; type: cell-based; settings: AS, 48 hours
Method: as §1, §2

Uromyces phaseoli = assay: Spore germination test; type: cell-based; settings: UP, 48 hours
Method: as §1, §2

Erysiphe polygoni = assay: Spore germination test; type: cell-based; settings: EP, 48 hours
Method: as §1, §2

Botrytis cinerea = assay: Spore germination test; type: cell-based; settings: BC, 48 hours
Method: as §1, §2

Venturia inaequalis = assay: Spore germination test; type: cell-based; settings: VI, 48 hours
Method: VI = Venturia inaequalis
as §1, §2

Phytophthora infestans = type: cell-based; settings: PI, 48 hours

With N#Cc1c(Cl)c(Cl)c(Cl)c(C#N)c1Cl [Chlorothalonil, reference compound] as the compound, how does the inhibition at 5 ppm (Rhizoctonia solani; 5 ppm) read?
The inhibition at 5 ppm was 31%.

What about the inhibition at 10 ppm (Rhizoctonia solani; 10 ppm) of the same compound?
The inhibition at 10 ppm was 40%.

And the inhibition at 20 ppm (Rhizoctonia solani; 20 ppm)?
The inhibition at 20 ppm was 53%.

And the inhibition at 40 ppm (Rhizoctonia solani; 40 ppm)?
Its inhibition at 40 ppm is 73%.

What about the inhibition at 5 ppm (Sclerotinia fructicola; 5 ppm) of the same compound?
The inhibition at 5 ppm was 67%.

And the inhibition at 10 ppm (Sclerotinia fructicola; 10 ppm)?
Its inhibition at 10 ppm is 70%.

What about the inhibition at 20 ppm (Sclerotinia fructicola; 20 ppm) of the same compound?
The inhibition at 20 ppm was 76%.

What about the inhibition at 40 ppm (Sclerotinia fructicola; 40 ppm) of the same compound?
Its inhibition at 40 ppm is 82%.

What about the inhibition at 5 ppm (Helminthosporium oryzae) of the same compound?
Its inhibition at 5 ppm is 50%.

What about the inhibition at 10 ppm (Helminthosporium oryzae) of the same compound?
The inhibition at 10 ppm was 59%.

What about the inhibition at 20 ppm (Helminthosporium oryzae) of the same compound?
Its inhibition at 20 ppm is 73%.

What about the inhibition at 40 ppm (Helminthosporium oryzae) of the same compound?
The inhibition at 40 ppm was 95%.

And the inhibition at 5 ppm (Fusarium solani; PS, 5 ppm, 72 hours, read-out: Percent Fungus Growth Inhibition)?
Its inhibition at 5 ppm is 41%.

What about the inhibition at 10 ppm (Fusarium solani; PS, 10 ppm, 72 hours, read-out: Percent Fungus Growth Inhibition) of the same compound?
The inhibition at 10 ppm was 41%.

What about the inhibition at 20 ppm (Fusarium solani; PS, 20 ppm, 72 hours, read-out: Percent Fungus Growth Inhibition) of the same compound?
Its inhibition at 20 ppm is 76%.

And the inhibition at 40 ppm (Fusarium solani; read-out: Percent Fungus Growth Inhibition, PS, 40 ppm, 72 hours)?
The inhibition at 40 ppm was 88%.

What about the inhibition at 5 ppm (Pythium ultimum; 5 ppm) of the same compound?
The inhibition at 5 ppm was 0%.

And the inhibition at 10 ppm (Pythium ultimum; 10 ppm)?
The inhibition at 10 ppm was 31%.

What about the inhibition at 20 ppm (Pythium ultimum; 20 ppm) of the same compound?
Its inhibition at 20 ppm is 100%.

What about the inhibition at 40 ppm (Pythium ultimum; 40 ppm) of the same compound?
Its inhibition at 40 ppm is 100%.

And the inhibition at 5 ppm (Cladosporium cucumerinum [1]; 72 h, 5 ppm)?
The inhibition at 5 ppm was 63%.

And the inhibition at 10 ppm (Cladosporium cucumerinum [1]; 72 h, 10 ppm)?
Its inhibition at 10 ppm is 63%.

What about the inhibition at 40 ppm (Cladosporium cucumerinum [1]; 72 h, 40 ppm) of the same compound?
The inhibition at 40 ppm was 96%.

What about the inhibition at 20 ppm (Cladosporium cucumerinum [1]; CC20, 72 h, 20 ppm) of the same compound?
Its inhibition at 20 ppm is 71%.

And the inhibition at 5 ppm (Pyricularia oryzae [2]; read-out: Percent Fungus Growth Inhibition, PO, 5 ppm, 72 hours)?
The inhibition at 5 ppm was 26%.

What about the inhibition at 10 ppm (Pyricularia oryzae [2]; read-out: Percent Fungus Growth Inhibition, PO, 10 ppm, 72 hours) of the same compound?
Its inhibition at 10 ppm is 15%.

And the inhibition at 20 ppm (Pyricularia oryzae [2]; read-out: Percent Fungus Growth Inhibition, PO, 20 ppm, 72 hours)?
The inhibition at 20 ppm was 41%.

What about the inhibition at 40 ppm (Pyricularia oryzae [2]; read-out: Percent Fungus Growth Inhibition, PO, 40 ppm, 72 hours) of the same compound?
The inhibition at 40 ppm was 48%.

What about the inhibition at 5 ppm (Alternaria solani [3]; 5 ppm) of the same compound?
Its inhibition at 5 ppm is 44%.

And the inhibition at 10 ppm (Alternaria solani [3]; 10 ppm)?
Its inhibition at 10 ppm is 50%.

What about the inhibition at 20 ppm (Alternaria solani [3]; 20 ppm) of the same compound?
Its inhibition at 20 ppm is 38%.

What about the inhibition at 40 ppm (Alternaria solani [3]; 40 ppm) of the same compound?
Its inhibition at 40 ppm is 75%.

For CCCCNC(=O)n1c(NC(=O)OC)nc2ccccc21 [Benomyl, reference compound], which “Spore Germination Rating” value (Pyricularia oryzae [4]; 1.0 ppm) is on record?
The value was 4 (80-100).

And the “Spore Germination Rating” value (Pyricularia oryzae [4]; 2.5 ppm)?
The value was 4 (80-100).

What about the “Spore Germination Rating” value (Pyricularia oryzae [4]; 10 ppm) of the same compound?
Its value is 3 (60-80).

What about the “Spore Germination Rating” value (Pyricularia oryzae [4]; 40 ppm) of the same compound?
Its value is 0 (0-10).

And the “Spore Germination Rating” value (Cladosporium cucumerinum [5]; 1.0 ppm)?
The value was 4 (80-100).

And the “Spore Germination Rating” value (Cladosporium cucumerinum [5]; 2.5 ppm)?
Its value is 4 (80-100).

And the “Spore Germination Rating” value (Cladosporium cucumerinum [5]; 10 ppm)?
Its value is 3 (60-80).

What about the “Spore Germination Rating” value (Cladosporium cucumerinum [5]; 40 ppm) of the same compound?
The value was 0 (0-10).

What about the “Spore Germination Rating” value (Alternaria solani [6]; 1.0 ppm) of the same compound?
The value was 4 (80-100).

And the “Spore Germination Rating” value (Alternaria solani [6]; 2.5 ppm)?
Its value is 4 (80-100).

What about the “Spore Germination Rating” value (Alternaria solani [6]; 10 ppm) of the same compound?
The value was 4 (80-100).

What about the “Spore Germination Rating” value (Alternaria solani [6]; 40 ppm) of the same compound?
The value was 4 (80-100).

What about the “Spore Germination Rating” value (Uromyces phaseoli; 1.0 ppm) of the same compound?
The value was 4 (80-100).

And the “Spore Germination Rating” value (Uromyces phaseoli; 2.5 ppm)?
The value was 1 (10-40).

What about the “Spore Germination Rating” value (Uromyces phaseoli; 10 ppm) of the same compound?
The value was 1 (10-40).

And the “Spore Germination Rating” value (Uromyces phaseoli; 40 ppm)?
Its value is 0 (0-10).

What about the “Spore Germination Rating” value (Erysiphe polygoni; 1.0 ppm) of the same compound?
Its value is 2 (40-60).

And the “Spore Germination Rating” value (Erysiphe polygoni; 2.5 ppm)?
The value was 2 (40-60).

What about the “Spore Germination Rating” value (Erysiphe polygoni; 10 ppm) of the same compound?
Its value is 0 (0-10).

And the “Spore Germination Rating” value (Erysiphe polygoni; 40 ppm)?
Its value is 0 (0-10).

And the “Spore Germination Rating” value (Botrytis cinerea; 1.0 ppm)?
The value was 4 (80-100).

What about the “Spore Germination Rating” value (Botrytis cinerea; 2.5 ppm) of the same compound?
The value was 4 (80-100).

And the “Spore Germination Rating” value (Botrytis cinerea; 10 ppm)?
Its value is 4 (80-100).

And the “Spore Germination Rating” value (Botrytis cinerea; 40 ppm)?
The value was 4 (80-100).

What about the “Spore Germination Rating” value (Venturia inaequalis; 1.0 ppm) of the same compound?
The value was 3 (60-80).

What about the “Spore Germination Rating” value (Venturia inaequalis; 2.5 ppm) of the same compound?
The value was 3 (60-80).

And the “Spore Germination Rating” value (Venturia inaequalis; 10 ppm)?
The value was 0 (0-10).

What about the “Spore Germination Rating” value (Venturia inaequalis; 40 ppm) of the same compound?
Its value is 0 (0-10).

And the “Spore Germination Rating” value (Phytophthora infestans; 1.0 ppm)?
Its value is 2 (40-60).

What about the “Spore Germination Rating” value (Phytophthora infestans; 2.5 ppm) of the same compound?
Its value is 2 (40-60).

What about the “Spore Germination Rating” value (Phytophthora infestans; 10 ppm) of the same compound?
The value was 0 (0-10).

And the “Spore Germination Rating” value (Phytophthora infestans; 40 ppm)?
Its value is 1 (10-40).
